± gives the standard deviation of the averaged measurements.
Key:
[1] = compound: T1, CC[C@@]1(O)C(=O)OCc2c1cc1n(c2=O)Cc2cc3ccccc3nc2-1 [CAMPTOTHECIN]; assay: surviving fraction relative to DMSO-only wells; higher = less growth inhibition; conditions: exposure time: 5 days
Summary of the method: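 Viability was scored with CellTiter-Glo luminescence and normalised to the median of DMSO-only wells as surviving fraction. Beforehand, log-phase tumour cell lines were seeded at 250–500 cells per well in 384-well plates, allowed 24 hours, and exposed continuously for five days to inhibitors at 0.5, 1, 5, 10, 50, 100, 500 and 1000 nM. Only lines whose three screens gave replicate Pearson r >0.7 and median Z' >0.3 were kept.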

[2] = compound: CC(=O)O[C@H]1C(=O)[C@@]2(C)[C@H]([C@H](OC(=O)c3ccccc3)[C@]3(O)C[C@H](OC(=O)[C@H](O)[C@@H](NC(=O)c4ccccc4)c4ccccc4)C(C)=C1C3(C)C)[C@]1(OC(C)=O)CO[C@@H]1C[C@@H]2O [PACLITAXEL]; assay: area under dose-response curve of surviving fraction (unscaled, Aref=0) (surviving fraction x log10(nM)); higher = more resistant; conditions: exposure time: 5 days; dose range 0.5-1000 nM
Summary of the method: (§1)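 Tumour cell lines in 384-well plates were exposed for five days to eight inhibitor concentrations from 0.5 to 1000 nM. Viability was read by CellTiter-Glo luminescence, normalised to DMSO-only wells, in three screens per line. Dose-response survival curves were fitted to surviving fractions by 3-parameter logistic regression in the drc R package. Area under the curve is the unscaled activity area (Aref = 0) over log10 dose.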

[3] = compound: C[C@]1(O)C[C@@H](c2nc(-c3ccc4ccc(-c5ccccc5)nc4c3)c3c(N)nccn32)C1 [OSI-906]; assay: as above; conditions: exposure time: 5 days; dose range 0.5-1000 nM
Summary of the method: as §1

[4] = compound: COc1cc2ncnc(Nc3ccc(F)c(Cl)c3)c2cc1OCCCN1CCOCC1 [GEFITINIB]; assay: as above; conditions: exposure time: 5 days; dose range 0.5-1000 nM
Summary of the method: as §1

[5] = compound: CC(=O)c1c(C)c2cnc(Nc3ccc(N4CCNCC4)cn3)nc2n(C2CCCC2)c1=O; assay: as above; conditions: exposure time: 5 days; dose range 0.5-1000 nM
Summary of the method: as §1

[6] = compound: T1, CAMPTOTHECIN; assay: as above; conditions: exposure time: 5 days; dose range 0.5-1000 nM
Summary of the method: as §1

[7] = compound: Cc1ccc(-c2cc(C(F)(F)F)nn2-c2ccc(S(N)(=O)=O)cc2)cc1 [CELECOXIB]; assay: as above; conditions: exposure time: 5 days; dose range 0.5-1000 nM
Summary of the method: as §1

[8] = compound: O=C(O)C1(C(=O)O)CCC1.[NH2-].[NH2-].[Pt+2] [CARBOPLATIN]; assay: as above; conditions: exposure time: 5 days; dose range 0.5-1000 nM
Summary of the method: as §1

[9] = compound: COCC[n+]1c2c(n(Cc3cnccn3)c1C)C(=O)c1ccccc1C2=O [YM155]; assay: as above; conditions: exposure time: 5 days; dose range 0.5-1000 nM
Summary of the method: as §1

[10] = compound: CC(=O)NCC(=O)N1[C@@H]2CC[C@H]1c1ccc(Nc3ncc(C(F)(F)F)c(NC4CCC4)n3)cc12; assay: as above; conditions: exposure time: 5 days; dose range 0.5-1000 nM
Summary of the method: as §1

Test System	surviving fraction ([1]; 0.5 nM)	surviving fraction ([1]; 1 nM)	surviving fraction ([1]; 5 nM)	surviving fraction ([1]; 10 nM)	surviving fraction ([1]; 50 nM)	surviving fraction ([1]; 100 nM)	surviving fraction ([1]; 500 nM)	surviving fraction ([1]; 1000 nM)	area under dose-response curve [2]	area under dose-response curve [3]	area under dose-response curve [4]	area under dose-response curve [5]	area under dose-response curve [6]	area under dose-response curve [7]	area under dose-response curve [8]	area under dose-response curve [9]	area under dose-response curve [10]
HELA CERVIX	0.934 ± 0.062	0.937 ± 0.044	0.967 ± 0.04	1.06 ± 0.014	0.253 ± 0.019	0.373 ± 0.02	0.0667 ± 0.0072	0.0348 ± 0.0013	0.718	3.27	3.66	3.5	1.99	3.64	3.53	1.07	2.21
HOS BONE	0.902 ± 0.0096	0.889 ± 0.017	0.758 ± 0.011	0.25 ± 0.021	0.1 ± 0.0059	0.056 ± 0.005	0.0223 ± 0.00058	0.0237 ± 0.00058	0.728	3.06	3.42	3.47	1.25	3.42	3.54	0.418	2.69
CAL72 BONE	0.985 ± 0.029	0.991 ± 0.021	0.955 ± 0.034	0.762 ± 0.12	0.18 ± 0.022	0.118 ± 0.011	0.0517 ± 0.0015	0.0597 ± 0.0011	0.96	3.22	3.5	3.69	1.67	3.49	3.49	1.02	2.9
H23 LUNG	0.919 ± 0.02	0.916 ± 0.041	0.56 ± 0.021	0.269 ± 0.0046	0.0917 ± 0.006	0.0627 ± 0.0011	0.0193 ± 0.00058	0.0197 ± 0.00058	0.876	2.81	2.37	3.51	1.1	3.59	3.55	0.646	2.73
MDAMB436 BREAST	0.678 ± 0.074	0.677 ± 0.055	0.391 ± 0.047	0.318 ± 0.048	0.2 ± 0.017	0.177 ± 0.0068	0.142 ± 0.018	0.141 ± 0.022	1.01	2.93	3.12	3.02	1.06	3.4	3.18	1.42	2.63
